Drawing on BindingDB's records for patent US11787810 (Merck Sharp & Dohme, 2023), this text covers IC50 for three molecules.

The experiment has as its target T1, Diacylglycerol O-acyltransferase 2 (Homo sapiens, UniProt Q96PD7).
T1 sequence (Q96PD7 whole entry): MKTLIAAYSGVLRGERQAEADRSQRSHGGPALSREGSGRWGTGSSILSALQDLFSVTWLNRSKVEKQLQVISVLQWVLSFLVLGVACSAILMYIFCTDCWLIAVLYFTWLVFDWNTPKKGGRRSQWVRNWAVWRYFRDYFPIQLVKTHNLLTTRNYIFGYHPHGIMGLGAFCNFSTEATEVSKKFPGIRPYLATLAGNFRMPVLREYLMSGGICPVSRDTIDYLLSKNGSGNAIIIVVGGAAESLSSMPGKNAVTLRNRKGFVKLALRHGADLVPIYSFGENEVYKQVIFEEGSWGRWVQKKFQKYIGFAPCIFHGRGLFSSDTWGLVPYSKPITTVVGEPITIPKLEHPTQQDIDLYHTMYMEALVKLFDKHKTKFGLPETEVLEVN
Put plainly: DGAT2 Enzymatic Activity Assay. As to the method: DGAT2 activity was determined by measuring the amount of enzymatic product 13C18-triolein (13C-1,2,3-Tri(cis-9-octadecenoyl)glycerol) using the membrane prep mentioned above. The assay was carried out in ABgene 384-well assay plates in a final volume of 25 μL at rt. The assay mixture contained the following: assay buffer (100 mM Tris Cl, pH 7.0, 20 mM MgCl2, 5% ethanol), 25 μM of diolein, 5 μM of 13C oleoyl-CoA and 8 ng/μL of DGAT2 membrane.
Broadly, the IC50 is the concentration needed to halve the response being measured. Read a low IC50 as greater potency. `CC(C)n1nc(-c2cccc(OC(F)F)c2)c2ncc(C(=O)NC3(C)CCS(=O)(=O)CC3)cc21` [US11787810, Example 32]: the IC50 was determined as 4.3 nM.

In the case of `CC(C)n1nc(-c2cccc(OCC#N)c2)c2ncc(C(=O)NC3(C)CS(=O)(=O)C3)cc21` [US11787810, Example 103], 142 nM corresponded to half-maximal inhibition (IC50).

As for `CC(=O)N1CC(n2nc(-c3cccc(OC(F)F)c3)c3ncc(C(=O)NC4(C)CS(=O)(=O)C4)cc32)C1` [US11787810, Example 135], the IC50 came out at 7940 nM.
